Experimental data: patent publication US4826813A, “4'-Methyl-β-mercapto-β,β-cyclopentamethylenepropionic acid vasopressin antagonists” (SmithKline Beckman Corporation, priority 1987, dated 1989)
*1 amine or outer side, *2 acyl side, *3 side chain or, on linkers, in order; H or OH if unused. Where a SMILES comes first, the peptide text is derived from it. Bridges are numbered along the chain shown (N, C = ends). [ ]: non-standard residue; d: D form. X2 = C[C@H]1CC[C@@](CC(=O)[*:1])(S[*:2])CC1

Tests used:
[1] = molecular target: vasopressin receptors (V2 -receptors) (Sus scrofa, UniProt P32307); experiment: biochemical
Chain of vasopressin receptors (V2 -receptors) (P32307 whole entry): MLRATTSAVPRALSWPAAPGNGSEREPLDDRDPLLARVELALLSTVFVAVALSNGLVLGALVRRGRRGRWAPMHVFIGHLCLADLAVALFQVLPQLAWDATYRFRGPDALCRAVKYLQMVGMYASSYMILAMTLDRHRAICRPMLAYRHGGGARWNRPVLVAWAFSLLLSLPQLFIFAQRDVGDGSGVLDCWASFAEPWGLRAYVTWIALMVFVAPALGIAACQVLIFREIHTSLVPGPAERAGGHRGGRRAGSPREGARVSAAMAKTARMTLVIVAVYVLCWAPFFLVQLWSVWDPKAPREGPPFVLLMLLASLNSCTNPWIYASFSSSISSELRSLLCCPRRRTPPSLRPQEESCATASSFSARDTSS
Description: (§1) V2 -antagonistic activity toward the natural anti-diuretic hormone (anti-ADH activity) is determined, in vitro, in the medullary tissue of hog or human kidneys and, in vivo, in the hydropenic rat. The in vitro assay procedures for vasopressin stimulated adenylate cyclase activation or vasopressin binding activity are described by F. Stassen et al., J. Pharmacology and Experimental Therapeutics 223, 50-54 (1982). V1 -antagonistic activity is determined by procedures using the rat thoracic aorta tissue and plasma membranes of rat liver. These procedures are described in the noted Stassen publication and in a publication at the 1st International Conference on Diuretics, Miami, Fla., March (1984). Oxytocin antagonism is determined as described by W. Sawyer et al., Endocrinology 106, 81 (1979).
(§2) The hydropenic rat screen and the hog kidney assay are known to the art, Huffman et al., U.S. Pat. No. 4,469,679.

[2] = molecular target: vasopressin stimulated adenylate cyclase (V2 -receptors) (Sus scrofa, UniProt P32307); experiment: biochemical
Chain of vasopressin stimulated adenylate cyclase (V2 -receptors) (P32307 whole entry): as above
Description: as §1, §2

| SMILES | Ki [1] [nM] | Ki [2] [nM] |
| --- | --- | --- |
| CCOc1ccc(C[C@H]2NC(=O)C[C@]3(CC[C@H](C)CC3)SSC[C@@H](C(=O)N3CCC[C@H]3C(=O)N[C@@H](CCCNC(=N)N)C(N)=O)NC(=O)[C@H](CC(N)=O)NC(=O)[C@H](C(C)C)NC(=O)[C@H](Cc3ccccc3)NC2=O)cc1 [DTyr(Et) NH2, [1-(4'-methyl-β-mercapto-β,β-cyclopentamethylenepropionic acid)-2-(O-ethyl)-D-tyrosine-4-valine-8-arginine-9-desglycine]-vasopressin] ([dY](Et)FVNCPR-NH2; linker N-5 via X2) | 19 | – |
| COc1ccc(C[C@@H]2NC(=O)C[C@]3(CC[C@H](C)CC3)SSC[C@@H](C(=O)N3CCC[C@H]3C(=O)N[C@@H](CCCNC(=N)N)C(=O)NCC(N)=O)NC(=O)[C@H](CC(N)=O)NC(=O)[C@H](C(C)C)NC(=O)[C@H](Cc3ccccc3)NC2=O)cc1 [LTyr(Me) GlyNH2] (Y(Me)FVNCPRG-NH2; linker N-5 via X2) | 130 | 44 |
| CCOc1ccc(C[C@H]2NC(=O)C[C@]3(CC[C@H](C)CC3)SSC[C@@H](C(=O)N3CCC[C@H]3C(=O)N[C@@H](CCCNC(=N)N)C(=O)NCC(N)=O)NC(=O)[C@H](CC(N)=O)NC(=O)[C@H](C(C)C)NC(=O)[C@H](Cc3ccccc3)NC2=O)cc1 [DTyr(Et) GlyNH2, [1-(4'-methyl-β-mercapto-β,β-cyclopentamethylene propionic acid)-2-(O-ethyl)-D-tyrosine-4-valine-8-arginine]-vasopressin] ([dY](Et)FVNCPRG-NH2; linker N-5 via X2) | 13 | 4.2 |
